Measured values from US8575089B2, “Composition for preventing or treating inflammation” (University-Industry Cooperation Group of Kyung Hee, priority 2009, dated 2013).
Where no end group is shown, it is not given here.

Tests used:
[1] = system: mononuclear cells in blood; experiment: Corneal epithelial burn model: number of mononuclear cells in blood; assay type: in vivo, New Zealand white rabbit; conditions: rabbit, alkali burn of cornea; 5 nmole/kg SP i.v. immediately and 24 hours after burning; vs continuously increased without SP; FIG. 4
Procedure: Ketalar (50 mg/ml, Yuhan Corporation) and Rompun (23.32 mg (Xylazine hydrochloride)/ml, Bayer Korea Corporation) were mixed in a rate of 2:1, and then total 900 μl (Ketalar 600 μl: Rompun 300 μl) was injected into muscles of rabbits (New Zealand white rabbit, Male, 2.5 kg, n=4). After the intramuscular injection, 300 μl (Ketalar 200 μl: Rompun 100 μl) of the same anesthetic drug was injected in the rabbit's ear vein.
A 6 mm paper disc fully wetted by 1N NaOH was contacted to a limbus part of rabbit's cornea for 10 seconds. After alkali burning, corneal epithelium was removed in a size of the paper disc. The rabbit's eyes were quickly washed with a physiological saline immediately after alkali burning. At the same time, 5 nmole/kg of SP dissolved in a physiological saline was intravenously injected, and then after 24 hours, was injected once more (immediately after burning and at 24 hours after burning). For the control, PBS with the same volume was injected (injection Volume: 1 ml).
Peripheral blood was collected from ear veins in 10 ml at one, three, five and seven days after alkali burning. […]
The blood obtained from the above step was diluted twice with PBS, and then carefully put on Ficoll in a tube. […] Then, after adding 30 ml of PBS and centrifuging (washing step), the number of cells was counted to confirm the number of cells per 1 ml and then the results were shown in FIG. 4.

[2] = system: regulatory T cells (CD4+, FoxP3+) and anti-inflammatory macrophage M2 (CD11b+, CD206+); experiment: Radiation-irradiating model: FACS of regulatory T cells and macrophage M2 in mesentric lymph nodes and small intestine; assay type: in vivo, C57b1/6 mice; conditions: mice, 8 Gy, SP i.v., 4.5 hours after irradiation
Procedure: 5 nmole/kg of SP dissolved in a physiological saline was injected to a tail vein of C57b1/6 mice (8 weeks, sex; male, n=4, Average weight; 20 g) one day before irradiation and immediately after irradiation. The irradiation was performed at 8 Gy radiation in a Gamma lay radiation irradiator (^137Cs, Atomic Energy of Canada, Mississauga, Canada). The mice were sacrificed at 4.5 hours and one day after irradiation, and then the blood was collected. The part of the blood was used for analyzing CBC (Complete Blood Count) and the remaining blood was used to isolate serum and then analyze cytokines
The mice were sacrificed at 4.5 hours after irradiation using the same method as Example 3; mesentric lymph nodes were taken for isolating mononuclear cells; then isolated mononuclear cells were fixed at 3.7% formalin for 1 hour; and then anti-inflammatory-related T cells and macrophages were analyzed through FACS (BD FACSCalibur™: 343098, BD Biosciences, Canada) analysis.
Specifically, the mice were sacrificed at 4.5 hours after 8 Gy radiation; the abdomens were cut to open; mesentric lymph nodes and small intestines were taken and then were cut fine; then chopped by using operating scissors; then were treated with collagenase type I (Worthington, USA) and DNase I (Sigma, USA) at 37° C. for 20 minutes; washed, respectively; mononuclear cells were isolated; and then fixed in 3.7% formalin for 1 hour. The mesentric lymph nodes mononuclear cells fixed in formalin were double-stained with CD4 (130-091-608, Miltenyi Biotec, Germany) and FoxP3 (130-093-013, Miltenyi Biotec, Germany) antibody, and then regulatory T cells were analyzed through FACS analysis. In addition, an anti-inflammatory macrophage M2 analysis was performed through FACS analysis after double staining with CD11b (130-081-201, Miltenyi Biotec, Germany) and CD206 (ab64693, abcam, UK) antibody. Since T cells or macrophages in the small intestine mononuclear cells fixed in a formalin accounted for less than 1% of the whole cells, FACS analysis was performed after isolating CD3 (130-092-962, Miltenyi Biotec, Germany)+ cell and CD11b+ cell with MACS isolating method as disclosed in the previous Example 1-(2), respectively. Regulatory T cells were analyzed by double-staining the cells isolated by CD3 with CD4 and FoxP3 antibody and anti-inflammatory macrophage M2 analysis was performed by double-staining the cells isolated by CD11b with CD11b and CD206 antibody.

## Substance-P (RPKPQQFFGLM; not fully specified; ends and bridges not checked; UniProt P20366 58-68, looked up)
[1]
  total number of mononuclear cells per 1 ml blood: decreased at seven days
[2]; mesentric lymph nodes, FIG. 10
  anti-inflammatory macrophage M2 (CD11b+, CD206+): increased
  regulatory T cells (CD4+, FoxP3+): increased
[2]; small intestines, FIG. 11
  anti-inflammatory macrophage M2 (CD11b+, CD206+): increased
  regulatory T cells (CD4+, FoxP3+): increased
